The experiment has as its system albino, male, Sprague-Dawley subjects. The experiment can be described thus: Diuretic bioactivity analysis: urine output in metabolic cages after oral gelatin capsule dosing. In kind it is in vivo, rats. The following applies: 10 mg/kg oral. On the procedure:
Subject rats were weighed at the start of each example. Each formulation was prepared and then loaded into size 9 gelatin capsules using a gelatin capsule filler (Torpac, Fairfield, N.J.). Each gelatin capsule was weighed on a microbalance (AD-4 Autobalance, Perkin Elmer, Waltham, Mass.) prior to and after drug loading to prepare oral doses of 2.5 mg, 5 mg, or 10 mg of drug per kg of body mass within 0.5 mg of dose mass.
Each subject was anesthetized in an induction chamber with 3.5% isoflurane (Novation, Irving, Tex.) for 5-10 minutes. Once anesthetized, the subject was removed from the induction chamber and dosed with a size 9 gelatin capsule containing one of the furosemide formulations using the gelatin capsule dosing syringe (Torpac, Fairfield, N.J.). As a negative control the same subjects were administered empty gelatin capsules without furosemide to quantify the basal urine mass output for comparison. Upon recovery from anesthesia, each subject was then transferred to a metabolic cage for urine collection over a 10 hour period.
Twelve albino, male, Sprague-Dawley subjects (450 g to 750 g) were used as subjects in the bioactivity analysis example. Subjects were housed in standard bedded cages in accordance with NIH and IACUC guidelines. Immediately after oral gavage with a furosemide formulation, subjects were housed individually in a metabolic cage rack (Unifab Cages, Kalamazoo, Mich.) as shown in FIG. 2. Subjects were given access to food and water ad libitum throughout the study. Metabolic cages were equipped with wire grating floors that allowed for free passage and collection of excreted material during the period of containing the subject. Feces were collected beneath the large opening wire grating floor by smaller opening wire mesh screen, and urine continued through the screen into a funnel for collection into pre-weighed glass scintillation vials (Cole-Parmer, Vernon Hills, Ill.). At two hour intervals after dosing, the glass scintillation vials were weighed (Mettler Toledo, Columbus, Ohio) to quantify urine output as a function of time and were then replaced. Increased urine output above baseline values was used as a non-invasive measure of diuretic activity of the various furosemide formulations examined. After each 10 hour study, subjects were housed in bedded cages for a recovery period of at least 48 hours between metabolic cage studies.
Each dose was administered to three subjects and the average urine mass produced in the two hour time periods was determined and was compared to the average output of the same subjects that received a sham dosage without any furosemide, referred to in the figures as the basal output.

Take `NS(=O)(=O)c1cc(C(=O)O)c(NCc2ccco2)cc1Cl` [stock furosemide, Furosemide]: the “total urine output at hour 10 relative to the micronized dose” value (N=3, not significantly different) came out at 1.02 fold. For the same molecule, under “N=3, p<0.01”, the “mean urine mass output two hours after dosing relative to basal urine output” value stood at 12.2 fold; the “mean urine mass output two hours after dosing relative to equivalent dose of micronized furosemide” value was 8.6 fold; the “urine output two hours after oral dosing compared to micronized furosemide and basal control” value is “statistically significant greater urine output”.

The values are drawn from patent publication US8685947B2, “Compositions and methods for loop diuretics with consistent bioavailability” (Brown University, priority 2010, dated 2014).
